Data from ChEMBL document CHEMBL2074184, “Reversal of multidrug resistance in human leukemia K562 by tamolarizine, a novel calcium antagonist” (Jpn J Pharmacol, 2000).

Target: ATP-dependent translocase ABCB1 (Homo sapiens, UniProt P08183)
Experiment: TP_TRANSPORTER: increase in Rhodamine 123 intracellular accumulation (R123: 10 uM, Tamolarizine: 10 uM) in K562/DX cellsR cells, FACScan
Assay type: functional, cell-based
Conditions: k562/dxr

Chain of ATP-dependent translocase ABCB1 (P08183 whole entry): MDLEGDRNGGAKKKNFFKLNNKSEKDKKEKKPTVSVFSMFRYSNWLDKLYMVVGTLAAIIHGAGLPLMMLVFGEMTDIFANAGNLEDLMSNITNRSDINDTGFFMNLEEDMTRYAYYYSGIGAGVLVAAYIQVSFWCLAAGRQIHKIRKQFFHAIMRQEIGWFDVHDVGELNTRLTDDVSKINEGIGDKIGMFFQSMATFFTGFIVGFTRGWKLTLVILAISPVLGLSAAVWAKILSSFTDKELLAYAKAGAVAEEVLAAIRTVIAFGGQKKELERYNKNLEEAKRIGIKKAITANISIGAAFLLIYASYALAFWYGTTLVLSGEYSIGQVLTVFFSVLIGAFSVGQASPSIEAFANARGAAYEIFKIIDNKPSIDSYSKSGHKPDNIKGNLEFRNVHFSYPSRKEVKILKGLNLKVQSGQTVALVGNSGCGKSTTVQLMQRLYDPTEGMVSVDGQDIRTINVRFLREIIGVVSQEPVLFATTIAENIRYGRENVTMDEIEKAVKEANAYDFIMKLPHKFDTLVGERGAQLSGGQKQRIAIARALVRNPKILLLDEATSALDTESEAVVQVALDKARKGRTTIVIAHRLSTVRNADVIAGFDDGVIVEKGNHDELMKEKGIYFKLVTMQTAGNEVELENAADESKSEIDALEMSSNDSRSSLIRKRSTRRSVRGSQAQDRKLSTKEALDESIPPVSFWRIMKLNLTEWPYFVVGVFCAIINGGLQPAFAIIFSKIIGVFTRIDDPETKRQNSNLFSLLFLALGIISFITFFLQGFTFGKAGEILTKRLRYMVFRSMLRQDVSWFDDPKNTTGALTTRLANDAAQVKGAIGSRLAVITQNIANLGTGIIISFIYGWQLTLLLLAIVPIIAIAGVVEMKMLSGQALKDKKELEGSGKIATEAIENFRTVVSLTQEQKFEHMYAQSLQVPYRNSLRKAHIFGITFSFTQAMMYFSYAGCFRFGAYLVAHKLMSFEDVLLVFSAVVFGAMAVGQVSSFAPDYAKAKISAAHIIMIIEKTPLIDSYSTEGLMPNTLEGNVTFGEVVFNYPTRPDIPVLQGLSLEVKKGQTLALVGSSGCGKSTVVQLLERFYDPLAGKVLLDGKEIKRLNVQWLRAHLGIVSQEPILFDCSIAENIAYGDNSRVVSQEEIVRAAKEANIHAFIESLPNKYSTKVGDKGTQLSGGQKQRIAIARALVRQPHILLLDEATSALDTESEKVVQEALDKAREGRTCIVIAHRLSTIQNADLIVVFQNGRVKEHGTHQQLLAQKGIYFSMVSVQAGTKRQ

Activity: inhibitor [+]
Structure (SMILES): COc1ccc(C(O)CN2CCN(C(c3ccccc3)c3ccccc3)CC2)cc1OC (stereo unspecified) [TAMOLARIZINE]
